Legend:
[1] = system: Caski human cervical cancer cells; assay: MTT growth inhibition, Caski cells; type: cell-based; conditions: Ca-Ski, 72 h after treatment, read-out: Drug concentration (IC50) at which 50% cancer cells survived
[2] = system: human prostate cancer cells PC-3; assay: MTT growth inhibition, PC-3 cells; type: cell-based; conditions: 72 h after treatment, read-out: Drug concentration (IC50) at which 50% cancer cells survived
Text: (§1) Cell lines and cell culture: human lung cancer cells A549 and H460, human breast cancer cells MCF-7 and MDA-MB-231, human gastric cancer cells BGC-823, human prostate cancer cells PC-3, human chronic leukemia cells K562, human lymphoma cells U937, human liver cancer cells SMMC7721 and HepG2, human colon cancer cells HT29, human pancreatic cancer cells PANC-1 and BxPC3, human cervical cancer Hela cell lines, human brain tumor cells Daoy, human neuroma cells D54 and human oral epidermoid cancer cells KBV200 line with strong drug resistance, mouse melanoma cells B16, and highly metastatic Lewis lung cancer cell lines were purchased from American Type Culture Collection of the U.S. These cells were cultured with DMEM and RPMI-1640 culture solutions separately.
(§2) The procedure was as follows:
(§3) (1) 0.25% trypsin was used to digest cancer cells in a logarithmic growth phase to prepare a single-cell suspension, the concentration of cells was adjusted to 5×10^4/mL, and the adjusted suspension was inoculated into a 96-well culture plate with 100 μl per well;
(§4) (2) The culture plate was transferred into a 37° C. incubator with a saturated humidity and 5% of CO2 and cultured for 24 h; the compounds and the intermediates thereof obtained in embodiments 1-7 and the compound as represented by formula (IIIa) or the positive control anti-cancer drug with the concentration of 1-1000 μM/L were added to enable the final concentration to be 0.1-1500 μM/L. Control wells (only added with 200 μl of cell suspension) and drug-free blank control wells (containing the solvent of 0.01% DMSO) were set, each group included 8 wells, and the plate was placed into the 37° C. incubator with saturated humidity and 5% of CO2 for culturing;
(§5) (3) The 96-well plate was taken out at 48 h and 72 h after dosing, the original culture medium was carefully removed by suction, 100 μl of serum-free DMEM culture medium and 10 μl of MTT (5 mg/mL) solution were added in each well. The plate was continuously cultured for another 4 h and then the culture was terminated;
(§6) (4) The supernatant in the wells was carefully removed by suction, each well was added with 150 μl of DMSO and shaked at room temperature for 10-15 min to fully dissolve crystals.
(§7) (5) Colorimetric analysis: the wavelength was selected as 570 nm, the light absorbance (A value) of each well was determined on the microplate reader and the results were recorded; the experiment was repeated for three times;
(§8) (6) the experimental results were calculated according to the following formula: relative survival rate=(A value of each experimental group/A value of cell control group)×100%
(§9) Calculation of median-effect concentration (IC50, namely the drug concentration at which the inhibition rate is 50%, also known as half inhibitory concentration):
(§10) IC50 of the detected component was calculated by using a regression equation.

[3] = system: human cervical cancer cells Hela xenograft; assay: In-vivo growth of Hela xenografts in nude mice; set-up: species or system BALB/c nude mice; conditions: Mus musculus, ip, vs DMSO solvent control, read-out: Curative effect (inhibition rate %) of tumor weight; for inhibition in vivo at 60 mg/kg: 60 mg/kg intraperitoneal once a day; for inhibition in vivo at 90 mg/kg: 90 mg/kg intraperitoneal once a day
Description: RPMI1640 and DMEM culture solutions: Hyclone Company; inactivated fetal bovine serum: Hyclone Company, preserved at −20° C.; trypsin: Amersco Company; and 0.4% trypan blue: Sigma Company;
(3) Observation of growth of tumors in nude mice: the activities (including food intake, traits of urine and stool, mental state and the like) of the nude mice and the tumor growth time and growth situation of the transplanted tumors were observed every day, the body weight and the size of the tumors were measured once every 2-3 days. The long diameter a and the short diameter b (mm) of each tumor were measured by a vernier caliper to calculate the volume, wherein the volume V=π1/2·ab^2 (mm^3);
(4) sacrifice of animals: the mice were anesthetized and photoed after treatment experiments; the nude mice were sacrificed by breaking neck, the tumor tissues were stripped under sterile conditions and the weight of the tumors was weighed; and the effects of the drugs on pathology and toxicity of the various organs and tissues were detected.

[4] = system: HDAC4; assay: Western Blotting, HDAC4 level; type: cell-based; conditions: human liver cancer cells, Lewis lung cancer cells and other cancer cell lines and tumor tissues, read-out: Effective concentration (IC50) for inhibition of HDAC4
Text: (§11) Antibodies: primary antibodies of VEGFR, EGFR, c-Met, K-Ras, H-Ras, Akt, NF-κB, Cyclin D1, ER-alpha, Dvl-1, Dvl-2, Dvl-3, MMP-9, MMP2, β-catenin, Bcl-2, Bax, p53, p21, E-cadherin and Caspase3 protein, purchased from American Cell Signaling Technology Company and Santa Cruz Technology Company; and H3 acetylation, H4 acetylation and HDAC (HDAC3, HDAC4 and the like) Antibody Sample Kits, purchased from Cell Signaling Technology Company of the U.S.
(§12) (3) polyacrylamide gel electrophoresis (SDS-PAGE): an equal amount of protein lysate sample was used to separate protein, film transfer, and blocking, treated with appropriate primary antibodies and secondary antibodies in sequence, and the film was washed, then the color was developed with ECL kit, and a blot protein band was detected by exposure of an X-ray film; and a Gel-Pro Analyzer was used for quantitative analysis of gray degree, optical density value of the control group and the drug treatment group in various concentration were respectively compared with that of internal reference, the obtained ratios were respectively compared with the control group, and the protein expression level was semi-quantified.

[5] = system: highly metastatic Lewis lung cancer cell lines; assay: MTT growth inhibition, LLC cells; type: cell-based, mouse; conditions: Mus musculus, Lewis lung carcinoma, 72 h after treatment, read-out: Drug concentration (IC50) at which 50% cancer cells survived
Text: as §1, §2, §3, §4, §5, §6, §7, §8, §9, §10

[6] = system: EGFR; assay: Western Blotting, EGFR level; type: cell-based; conditions: human liver cancer cells, Lewis lung cancer cells and other cancer cell lines and tumor tissues, read-out: Effective concentration (IC50) for inhibition of EGFR
Text: as §11, §12

Row | SMILES | IC50 [1] | IC50 [2] | inhibition in vivo at 60 mg/kg [3] | inhibition in vivo at 90 mg/kg [3] | IC50 [4] | IC50 [5] | IC50 [6]
1 | CCNC(=O)CC[C@@H](NC(=O)c1cc2cc(Br)ccc2oc1=O)C(=O)OCC [Compound Id, (R)-2-(6-Br-2-oxo-2H-benzopyran-3-carboxamido)-5-ethylamino-5-oxo-pentanoic acid ethyl ester] | 101 µM | 110 µM | 57.9% | 71.9% | < 50 µM | 116 µM | < 100 µM
2 | CCNC(=O)CC[C@H](N)C(=O)OC [Compound IIa, theanine methyl ester] | 320 µM | 350 µM | 38.7% | 38.7% | – | 100 µM | –
3 | CCNC(=O)CC[C@@H](NC(=O)c1cc2cc(Cl)ccc2oc1=O)C(=O)OCC [Compound Ic, (R)-2-(6-CI-2-oxo-2H-benzopyran-3-carboxamido)-5-ethylamino-5-oxo-pentanoic acid ethyl ester] | 86 µM | 105 µM | 53.7% | 65.8% | < 50 µM | 131 µM | < 100 µM
4 | CCNC(=O)CC[C@@H](NC(=O)c1cc2cc(Cl)cc(Cl)c2oc1=O)C(=O)OCC [Compound Ig, (R)-2-(6,8-dichloro-2-oxo-2H-benzopyran-3-carboxamido)-5-ethylamino-5-oxo-pentanoic ethyl ester] | 36 µM | 45 µM | 56.7% | 70.3% | < 50 µM | 36 µM | < 100 µM
5 | CCNC(=O)CCC(NC(=O)c1cc2cc([N+](=O)[O-])ccc2oc1=O)C(=O)OCC (stereo in doubt) [Compound If, (R)-2-(6-nitro-2-oxo-2H-benzopyran-3-carboxamido)-5-ethylamino-5-oxo-pentanoic acid ethyl ester] | 120 µM | 171 µM | 50.9% | 66.8% | < 45 µM | 100 µM | < 100 µM
6 | CCNC(=O)CCC(NC(=O)c1cc2ccccc2oc1=O)C(=O)OCC (stereo not drawn) [Compound Ib, ethyl 5-ethylamino-5-oxo-2-(2-oxo-2H-benzopyran-3-carboxamido)pentanoate] | 116 µM | 125 µM | 53.9% | 63.8% | < 60 µM | 115 µM | < 120 µM
7 | CCNC(=O)CCC(NC(=O)c1cc2cc(F)ccc2oc1=O)C(=O)OCC (stereo in doubt) [Compound Ie, (R)-2-(6-F-2-oxo-2H-benzopyran-3-carboxamido)-5-ethylamino-5-oxo-pentanoic acid ethyl ester] | 230 µM | 127 µM | 60.7% | 70.5% | < 50 µM | 110 µM | < 110 µM
8 | CCNC(=O)CC[C@H](N)C(=O)OCC [Compound IIb, theanine ethyl ester] | 300 µM | 400 µM | 41.7% | 41.7% | – | 300 µM | –
9 | CCNC(=O)CC[C@@H](NC(=O)c1cc2cc(Br)cc(Br)c2oc1=O)C(=O)OCC [Compound Ih, (R)-2-(6,8-dibromo-2-oxo-2H-benzopyran-3-carboxamido)-5-ethylamino-5-oxo-pentanoic ethyl ester] | 53 µM | 87 µM | 62.9% | 72.6% | < 50 µM | 53 µM | < 100 µM
10 | CCNC(=O)CCC(NC(=O)c1cc2ccccc2oc1=O)C(=O)OC (stereo not drawn) [Compound Ia, methyl 5-ethylamino-5-oxo-2-(2-oxo-2H-benzopyran-3-carboxamido)pentanoate] | 210 µM | 146 µM | 54.7% | 62.9% | < 65 µM | 185 µM | < 125 µM

From patent publication US9518038B2, “Condensation product of theanine derivative and carboxylic acid coumarin derivative, its intermediate, preparation method and use thereof” (SHANDONG YINGDONG YINGHAO BIOTECHNOLOGY, INC., priority 2012, dated 2016)
